Test results published in US20170355956A1, “COMPOSITIONS FOR INCREASING SURVIVAL OF MOTOR NEURON PROTEIN (SMN) LEVELS IN TARGET CELLS AND METHODS OF USE THEREOF FOR THE TREATMENT OF SPINAL MUSCULAR ATROPHY” (RUTGERS, THE STATE UNIVERSITY OF NEW JERSEY, priority 2014, published 2017).

Columns and labels:
Type in all cases: cell-based
[1] = tested on: endogenous DcpS exon 4 splice site; test: Antisense splice switching of endogenous DcpS, splicing patterns by RT-PCR; conditions: 293T cells
Description: FIG. 6. Splice switching of endogenous DcpS intron 4 to the DcpS^In15 alternative site. Vivo-morpholino antisense oligonucleotide (red line) was added to GM03813 cells and DcpS splicing tested. Schematic on lower right depicts the splicing pattern resulting with the indicated concentration of vivo-morpholino and arrows denote the primers used. Endogenous splicing is inhibited and shifted to the alternative site 45nt downstream as well as exon 4 skipping. Bottom panel is a control of exon2-exon3 junction not affected by the oligonucleotide. An exemplary antisense molecule comprises 5′ TTCCAGCCAGAAA CCTTTACCTGCT 3′ (SEQ ID NO: 1). However, antisense oligonucleotides can be designed to hybridize to the any contiguous 20-25 mer present in the DcpS variant sequence shown in FIG. 6.
Shifting of the endogenous DcpS gene to express the DcpS^In15 variant can also be accomplished by antisense oligonucleotide splice switching technology. With this approach, an antisense oligonucleotide complementary to the endogenous splice site is used to block the endogenous site and shift the splicing pattern to the DcpS^In15 pattern in SMA patient cells. The objective is to alter the endogenous DcpS splicing in order to generate sufficient levels of DcpS^In15 thereby elevating SMN2 gene expression and increasing levels of full length SMN protein. 293T cells were treated with 5 μM antisense morpholino oligonucleotide containing a cell permeable guanidinium based dendramer delivery system (vivo-morpholino; GeneTools LLC) for 24 hours and splicing patterns determined by RT-PCR. […] Instead ˜50% of the splicing utilizes the DcpS^In15 splice site 45 nucleotides downstream analogous to that observed in the homozygous DcpS^In15 ID patient cells, and ˜50% results in both sites being blocked and skipping of exon 4 entirely. In the latter case (lower panel in FIG. 6), splicing bypasses exon 4 and goes from exon 3 to exon 5. […] The invention also encompasses optimized oligonucleotide sequences comprising altered nucleotide backbones, and small molecules that can shift splicing to further improve levels of DcpS^In15, thereby elevating SMN2 levels and providing a therapeutic intervention for SMA patients.

[2] = tested on: fl-SMN2 mRNA; test: fl-SMN2 mRNA in GM03813 SMA patient cells expressing DcpS variants; conditions: GM03813 cells knocked down for DcpS, stably expressing shRNA-resistant DcpS variant
Description: (§1) FIGS. 3A-3C. DcpS^In15 increases fl-SMN2 mRNA and SMN protein in GM03813 SMA patient cells. FIG. 3A. fl-SMN2 mRNA levels were tested in GM03813 cells knocked down for DcpS and stably expressing the indicated shRNA-resistant DcpS variants. […] (Average of three biological replicates) FIG. 3B. Western of SMN and DcpS proteins from cells used in A. (Average of two biological replicates). FIG. 3C. SMN protein levels increase in GM0813 cells expressing DcpS^In15 with a background of endogenous levels of DcpS protein.

[3] = tested on: SMN protein; test: Western of SMN protein in GM03813 SMA patient cells expressing DcpS variants; conditions: background of reduced endogenous DcpS
Description: as §1

Row | Molecule | splicing that utilizes the DcpS^In15 splice site 45 nucleotides downstream ([1]; 5 μM, 24 hours, RT-PCR) | splicing with both sites blocked and skipping of exon 4 entirely ([1]; 5 μM, 24 hours, RT-PCR) | utilization of the endogenous exon 4 splice site ([1]; 5 μM, 24 hours, RT-PCR) | level of DcpS^In15 mRNA ([1]; antisense oligonucleotide splice switching) | fl-SMN2 mRNA levels [2] | SMN protein level (Western) [3]
1 | 5′ TTCCAGCCAGAAA CCTTTACCTGCT 3′ (antisense TTCCAGCCAGAAACCTTTACCTGCT; vivo-morpholino guanidinium dendrimer delivery moiety, chemistry not fully specified) [vivo-morpholino oligonucleotide, antisense morpholino oligonucleotide containing a cell permeable guanidinium based dendramer delivery system (vivo-morpholino; GeneTools LLC)] | ~50% | ~50% | completely inhibits | increased level |  | 
2 | wild type: wild type DcpS (scavenger decapping enzyme) used to complement DcpS knockdown cells (protein, UniProt Q96C86 2-337, looked up) m7GpppX diphosphatase: ADAAPQLGKRKRELDVEEAHAASTEEKEAGVGNGTCAPVRLPFSGFRLQKVLRESARDKIIFLHGKVNEASGDGDGEDAVVILEKTPFQVEQVAQLLTGSPELQLQFSNDIYSTYHLFPPRQLNDVKTTVVYPATEKHLQKYLRQDLRLIRETGDDYRNITLPHLESQSLSIQWVYNILDKKAEADRIVFENPDPSDGFVLIPDLKWNQQQLDDLYLIAICHRRGIRSLRDLTPEHLPLLRNILHQGQEAILQRYRMKGDHLRVYLHYLPSYYHLHVHFTALGFEAPGSGVERAHLLAEVIENLECDPRHYQQRTLTFALRADDPLLKLLQEAQQS |  |  |  |  | not observed | not observed
